Data set [1] relates to Bacillus subtilis PCI219. Nature of the data set: Growth-inhibiting action on Bacillus subtilis (agar plate MIC). The following applies: Bacillus subtilis. The class given is cell-based. As to the method: Each of the compounds of this invention was dissolved in nutrient agar media to final concentrations of 100, 50, 25, 12.5, 6.25, 3.13 and 1.56 μg/ml, to prepare agar plates for testing. Bacillus subtilis PCI219 was adjusted to a content of 1×10^6 viable cells/ml, in a culture broth, and a loopful of the broth was applied onto the agar plates. The plates were incubated for 20 hours at 37° C. under stationary conditions, and observed for the formation of colonies of Bacillus subtilis. The lowest of the concentrations at which no colonies were formed was taken to be minimum inhibitory concentration (MIC).

Data set [2] can be described thus: Toxicity: change in body weight in mice transplanted with L1210. The class given is in vivo, mouse (male CDF1-SLC). The following applies: once daily for 9 days. As to the method: (§1) Leukemia L1210 cells (1×10^5 /0.2 ml) were transplanted intraperitoneally into male CDF1 -SLC mice (6 mice/group). Each of the compounds of this invention was diluted with physiological saline to various concentrations. Each dilution was administered at a dose of 0.1 ml/10 g of body weight once daily for 9 days, starting on the day after the day of the transplantation. The mice of the control group were administered physiological saline.
Change in body weight, the measure of the toxicity of the compounds of this invention, was expressed by a difference between the change in body weight for the group receiving the compound of this invention and that for the control group receiving physiological saline and undergoing no transplantation.

Data set [3] has as its system mouse leukemia L1210. Put plainly: Life-prolonging effect in mouse leukemia L1210. The format is in vivo, mouse (male CDF1-SLC). The following applies: once daily for 9 days, >125 effective. As to the method: as §1
The average number of days that the group receiving the compound of this invention survived was calculated. The FIGURE obtained was divided by the average number of survival days for the control group, and was multiplied by 100 (T/C (%)). T/C value more than 125 was considered to be effective.

The nature of data set [4]: Stability of the compounds in aqueous solutions (HPLC residual content). The class given is physicochemical. The following applies: water. As to the method: Each of the compounds of this invention was dissolved in water to a concentration of 0.5 (w/w)%. The aqueous solution was maintained at 40°±1° C., and sampled at certain time intervals. Each sample was subjected to high-performance liquid chromatographic analysis to measure the area of the peak of the compound at each sampling time, and to calculate the ratio of the area of the peak after the indicated period of time to that at the first sampling time. The results of the calculation were used to determine the contents (%) of the compound of this invention in the aqueous solution after the indicated periods of time, with the initial content of said compound set at 100%.

In data set [5] the test system is mouse leukemia L1210 cells. Put plainly: In vitro proliferation-inhibiting action on mouse leukemia L1210 cells. The format is cell-based. The following applies: 48 hours at 37° C. The procedure: Leukemia L1210 cells (1×10^5 /0.2 ml) were transplanted to female DBA/2 mice intraperitoneally. four days later, the ascitic fluid was collected and centrifuged to obtain proliferated L1210 cells. The L1210 cells collected were added to RPMI1640 medium containing bovine fetal serum and 2-mercaptoethanol, to obtain a suspension of L1210 cells having a final concentration of 5×10^4 cells/0.9 ml. Each of the compounds of this invention was dissolved in said culture medium to prepare solutions with final concentrations ranging from 0.062 to 100 μg/ml. 0.9 ml of the L1210 cell suspension and 0.1 ml of each test solution were mixed in petri dishes, and incubated for 48 hours at 37° C. in an incubator under an atmosphere of carbon dioxide gas. The number of L1210 cells was counted before and after the incubation, and that concentration of the compound which inhibited the proliferation of L1210 cells by 50% of the control's proliferation was determined (IC50).

In data set [6] the test system is Ehrlich carcinoma. The following applies: cited from earlier work.
The subject of data set [7] is mouse leukemia FL-4. The following applies: cited from earlier work.
In data set [8] the test system is sarcoma 180 (S-180). The following applies: cited from earlier work.
Data set [9] concerns Gram-positive bacteria. The following applies: cited from earlier work.
Data set [10] deals with mouse leukemia L-1210. The following applies: cited from earlier work.
The test system of data set [11] is Gram-negative bacteria. The following applies: cited from earlier work.
The mark [12] stands for this setting: PCI219, nutrient agar, 20 hours at 37° C., read-out: MIC.

Converted amounts (≈) assume the structure as drawn. Counter-ions that a name gives are not always drawn. Like-named read-outs stand apart in the source and are kept apart here.

For orientation: MIC means the smallest concentration in the dilution series that meets the test's criterion for growth inhibition. In general, fraction remaining refers to the share of the starting amount still present when the sample was taken. A higher fraction remaining goes with less turnover. Broadly, the IC50 is the point on the concentration scale where inhibition reaches its midpoint. A lower IC50 goes with inhibition by little substance.

Consider `Cl.Cl.Cl.N=C(N)NCCCCCCC(=O)NCC(=O)NCCCCNCCCN` [Compound 1, 10-[N-(7-guanidinoheptanoyl)-glycyl]-1,5,10-triazadecane trihydrochloride], for which the MIC in [1] (setting [12]) came out at 6.25 µg/mL. The “Change in body weight (g)” value is given as “+1.8 g” in data set [2] (0.39 mg/kg/day); “+2.7 g” in [2] (0.78 mg/kg/day); “+1.0 g” in data set [2] (1.56 mg/kg/day); “+0.8 g” in data set [2] (3.13 mg/kg/day); “+0.9 g” in data set [2] (6.25 mg/kg/day); “+0.2 g” in data set [2] (12.50 mg/kg/day). Further, in data set [2] (25.00 mg/kg/day), the “Change in body weight” value is on record as -1.6 g. For the same compound, the “T/C (%)” value in data set [3] (0.39 mg/kg/day) is reported as 126%; in data set [3] (0.78 mg/kg/day), over 250%; in data set [3] (1.56 mg/kg/day), over 388%; in data set [3] (3.13 mg/kg/day), over 667%; in [3] (6.25 mg/kg/day) it was over 769%; in [3] (12.50 mg/kg/day), over 528%. For the same compound, the “T/C (%)” value in data set [3] (25.00 mg/kg/day) is over 279%; in data set [3] (50.00 mg/kg/day) it was 12.9%. Besides, the amount remaining at 12 h in data set [4] was determined as 99.7%. Further, the share remaining at 24 h in data set [4] amounted to 100%. For the same compound, the amount remaining at 48 h in data set [4] stood at 99.7%. Also, the fraction remaining at 72 h in data set [4] was 99.7%. Also, the amount remaining at 120 h in [4] was 99.8%. Besides, the amount remaining at 168 h in [4] is 99.9%. For the same compound, the IC50 in data set [5] turned out to be 1.7 µg/mL.
As to `N=C(N)NCCCCC(O)CC(=O)NC(O)C(=O)NCCCCNCCCN` (centres unmarked) [Spergualin], the “curing effect and life extension effect” value in [6] was “distinctive curing effect and life extension effect”; in data set [7], “distinctive curing effect and life extension effect”; in data set [8] it was “distinctive curing effect and life extension effect”; in data set [10] it was “distinctive curing effect and life extension effect”. Also, the “Change in body weight (g)” value is on record as “+0.8 g” in data set [2] (0.78 mg/kg/day); “+2.5 g” in data set [2] (1.56 mg/kg/day); “+1.2 g” in [2] (3.13 mg/kg/day); “+0.9 g” in data set [2] (6.25 mg/kg/day); “+0.8 g” in [2] (12.50 mg/kg/day); “+1.1 g” in data set [2] (25.00 mg/kg/day). Besides, the “Change in body weight (g)” value in [2] (50.00 mg/kg/day) is “+0.2 g”. Also, the “T/C (%)” value in [3] (0.78 mg/kg/day) is on record as 129%; in data set [3] (1.56 mg/kg/day) it was over 224%; in [3] (3.13 mg/kg/day), over 665%; in [3] (6.25 mg/kg/day), over 769%; in data set [3] (12.50 mg/kg/day), over 700%; in [3] (25.00 mg/kg/day), over 524%. In addition, in [3] (50.00 mg/kg/day), the “T/C (%)” value is reported as over 342%. The “Residual content (%) of the compound in an aqueous solution” value turned out to be 94.6% in data set [4] (12 h); 90.8% in [4] (24 h); 84.6% in [4] (48 h); 78.5% in [4] (72 h); 69.9% in data set [4] (120 h); 65.1% in [4] (168 h). Moreover, the growth inhibitory activity entry in data set [9] and in data set [11] was “growth inhibitory activity” in each case. In addition, the IC50 in data set [5] was determined as 4.6 µg/mL (≈ 11.4 µM).
The compound `Cl.Cl.Cl.N=C(N)NCCCCCCC(=O)N[C@@H](CO)C(=O)NCCCCNCCCN` [Compound 2, 10-[N-(7-guanidinoheptanoyl)-L-seryl]-1,5,10-triazadecane trihydrochloride] showed a minimal inhibitory concentration (MIC) in [1] (PCI219, 20 h) of 12.5 µg/mL. Further, the “Change in body weight (g)” value is “+2.7 g” in data set [2] (0.39 mg/kg/day); “+1.5 g” in data set [2] (0.78 mg/kg/day); “+1.3 g” in [2] (1.56 mg/kg/day); “+0.6 g” in data set [2] (3.13 mg/kg/day); “+1.0 g” in data set [2] (6.25 mg/kg/day). Further, in data set [2] (12.50 mg/kg/day), the “Change in body weight” value is -0.2 g. Also, the “T/C (%)” value in data set [3] (0.39 mg/kg/day) is listed as 124%; in data set [3] (0.78 mg/kg/day), over 346%; in [3] (1.56 mg/kg/day), over 769%; in data set [3] (3.13 mg/kg/day), over 769%; in [3] (6.25 mg/kg/day), over 705%; in [3] (12.50 mg/kg/day), over 612%. The “T/C (%)” value was found to be 100% in [3] (25.00 mg/kg/day) and 12.8% in data set [3] (50.00 mg/kg/day). In [4], this compound yielded an amount remaining at 12 h of 100%. The share remaining at 24 h in data set [4] was determined as 100%. The amount remaining at 48 h in [4] was 99.8%. Besides, the fraction remaining at 72 h in [4] came out at 100%. The share remaining at 120 h in [4] came to 99.7%. This compound gave an amount remaining at 168 h in data set [4] of 99.8%. Moreover, the concentration for half-maximal inhibition (IC50) in [5] is 4.5 µg/mL.
With `C[C@H](NC(=O)CCCCCCNC(=N)N)C(=O)NCCCCNCCCN` [Compound 5, 10-[N--(7-guanidinoheptanoyl)-L-alanyl]-1,5,10-triazadecane trihydrochloride], the MIC in data set [1] (setting [12]) came to 25 µg/mL. In data set [4], this compound yielded an amount remaining at 12 h of 99.8%, a share remaining at 24 h of 99.8%, a share remaining at 48 h of 100% and an amount remaining at 72 h of 99.6%. Moreover, in data set [4], the amount remaining at 120 h is 99% and the share remaining at 168 h is 99.9%. Further, the IC50 in data set [5] worked out at 37 µg/mL.

The values are drawn from US4529549A, “Spergualin-related compounds and process for the preparation thereof” (Zaidan Hojin Biseibutsu Kagaku Kenkyu Kai, priority 1982, dated 1985).
